Common to all, as to format: binding
Test [1] deals with kinases. Put plainly: Kinobeads profiling. Conditions: latest version of Kinobeads, without immobilized staurosporine.
Test [2] has as its target T1, TCF3 (Homo sapiens, UniProt P15923).
T1 sequence (P15923 1-654): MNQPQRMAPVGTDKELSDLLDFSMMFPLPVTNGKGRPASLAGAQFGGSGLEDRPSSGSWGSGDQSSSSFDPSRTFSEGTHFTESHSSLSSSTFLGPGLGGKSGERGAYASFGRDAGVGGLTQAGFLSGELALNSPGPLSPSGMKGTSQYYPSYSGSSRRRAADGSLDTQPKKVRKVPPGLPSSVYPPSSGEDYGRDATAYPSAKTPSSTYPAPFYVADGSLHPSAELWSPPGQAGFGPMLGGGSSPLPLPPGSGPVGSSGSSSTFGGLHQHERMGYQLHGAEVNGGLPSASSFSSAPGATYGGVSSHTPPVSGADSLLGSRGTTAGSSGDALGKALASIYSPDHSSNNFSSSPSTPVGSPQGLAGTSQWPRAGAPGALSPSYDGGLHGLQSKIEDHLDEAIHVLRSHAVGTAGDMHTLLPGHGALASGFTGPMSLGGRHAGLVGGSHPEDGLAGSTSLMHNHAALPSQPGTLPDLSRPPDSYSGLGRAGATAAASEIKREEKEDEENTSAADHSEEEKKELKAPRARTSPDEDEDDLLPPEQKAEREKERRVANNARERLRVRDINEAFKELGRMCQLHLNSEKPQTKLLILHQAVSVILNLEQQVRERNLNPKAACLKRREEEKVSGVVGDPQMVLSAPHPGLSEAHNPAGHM
In words: dose-response competition pulldown with MS readout.

In test [3] the target is T2, OTUD4 (Homo sapiens, UniProt Q01804).
T2 sequence (Q01804 1-1114): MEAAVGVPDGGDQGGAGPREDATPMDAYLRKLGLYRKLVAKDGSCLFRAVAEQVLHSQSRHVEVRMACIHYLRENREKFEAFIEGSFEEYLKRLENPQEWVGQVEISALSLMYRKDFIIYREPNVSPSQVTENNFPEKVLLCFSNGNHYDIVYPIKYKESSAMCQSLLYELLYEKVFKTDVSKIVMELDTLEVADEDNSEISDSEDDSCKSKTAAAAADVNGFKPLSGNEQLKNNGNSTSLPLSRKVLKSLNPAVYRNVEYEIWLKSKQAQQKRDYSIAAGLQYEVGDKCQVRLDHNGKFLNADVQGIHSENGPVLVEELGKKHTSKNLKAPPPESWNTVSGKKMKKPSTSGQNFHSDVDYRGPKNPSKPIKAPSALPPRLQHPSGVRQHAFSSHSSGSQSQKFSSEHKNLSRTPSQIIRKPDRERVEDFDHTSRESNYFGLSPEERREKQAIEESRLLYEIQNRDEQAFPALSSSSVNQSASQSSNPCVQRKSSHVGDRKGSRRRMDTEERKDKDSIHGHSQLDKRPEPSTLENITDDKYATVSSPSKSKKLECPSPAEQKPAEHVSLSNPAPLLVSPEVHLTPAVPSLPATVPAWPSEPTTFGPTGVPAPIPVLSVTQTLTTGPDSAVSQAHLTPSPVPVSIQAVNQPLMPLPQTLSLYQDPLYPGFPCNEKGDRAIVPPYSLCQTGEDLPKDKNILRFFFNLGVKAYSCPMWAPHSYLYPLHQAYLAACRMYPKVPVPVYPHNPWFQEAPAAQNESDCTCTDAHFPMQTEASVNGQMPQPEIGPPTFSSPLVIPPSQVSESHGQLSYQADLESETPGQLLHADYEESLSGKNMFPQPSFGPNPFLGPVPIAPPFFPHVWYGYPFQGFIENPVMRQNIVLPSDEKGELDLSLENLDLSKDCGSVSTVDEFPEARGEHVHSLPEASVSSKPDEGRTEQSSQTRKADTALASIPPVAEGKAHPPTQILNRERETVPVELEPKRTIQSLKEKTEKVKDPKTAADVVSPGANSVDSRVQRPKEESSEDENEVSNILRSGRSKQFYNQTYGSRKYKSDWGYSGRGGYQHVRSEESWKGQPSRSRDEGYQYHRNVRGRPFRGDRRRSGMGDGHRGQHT
In words: dose-response competition pulldown with MS readout.

For test [4], the target named is GATA1 (Homo sapiens, UniProt P15976). Put plainly: dose-response competition pulldown with MS readout.
Chain of GATA1 (P15976 whole entry): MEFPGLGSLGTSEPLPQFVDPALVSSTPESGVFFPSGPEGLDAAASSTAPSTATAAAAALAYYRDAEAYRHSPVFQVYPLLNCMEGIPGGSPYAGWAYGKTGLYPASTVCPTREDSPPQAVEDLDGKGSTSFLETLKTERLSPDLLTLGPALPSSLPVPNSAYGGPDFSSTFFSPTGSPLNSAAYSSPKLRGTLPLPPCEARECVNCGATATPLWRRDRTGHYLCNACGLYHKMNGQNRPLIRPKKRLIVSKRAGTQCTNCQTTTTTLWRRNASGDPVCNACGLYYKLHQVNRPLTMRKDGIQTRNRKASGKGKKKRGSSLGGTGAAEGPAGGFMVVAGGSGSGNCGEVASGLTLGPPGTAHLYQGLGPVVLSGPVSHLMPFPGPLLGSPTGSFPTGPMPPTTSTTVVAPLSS
In test [5] the target is T3, TRIM11 (Homo sapiens, UniProt Q96F44).
T3 sequence (Q96F44 1-468): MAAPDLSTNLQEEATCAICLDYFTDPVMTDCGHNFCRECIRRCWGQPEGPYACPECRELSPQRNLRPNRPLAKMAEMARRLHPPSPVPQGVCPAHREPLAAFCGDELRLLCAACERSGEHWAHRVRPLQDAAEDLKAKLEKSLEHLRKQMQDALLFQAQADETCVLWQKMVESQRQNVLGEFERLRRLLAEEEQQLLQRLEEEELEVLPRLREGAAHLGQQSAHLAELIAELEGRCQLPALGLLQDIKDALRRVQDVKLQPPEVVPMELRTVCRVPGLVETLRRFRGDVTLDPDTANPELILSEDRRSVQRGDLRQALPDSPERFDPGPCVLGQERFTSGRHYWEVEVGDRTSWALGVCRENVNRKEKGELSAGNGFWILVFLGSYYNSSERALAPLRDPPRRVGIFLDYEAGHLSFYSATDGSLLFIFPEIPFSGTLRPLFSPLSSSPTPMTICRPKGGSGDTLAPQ
Put plainly: dose-response competition pulldown with MS readout.

The target of test [6] is CNOT1 (Homo sapiens, UniProt A5YKK6). In words: dose-response competition pulldown with MS readout. The settings on record: SW-620 lysate; free FAD vs photo-immobilized FAD beads.
Chain of CNOT1 (A5YKK6 whole entry): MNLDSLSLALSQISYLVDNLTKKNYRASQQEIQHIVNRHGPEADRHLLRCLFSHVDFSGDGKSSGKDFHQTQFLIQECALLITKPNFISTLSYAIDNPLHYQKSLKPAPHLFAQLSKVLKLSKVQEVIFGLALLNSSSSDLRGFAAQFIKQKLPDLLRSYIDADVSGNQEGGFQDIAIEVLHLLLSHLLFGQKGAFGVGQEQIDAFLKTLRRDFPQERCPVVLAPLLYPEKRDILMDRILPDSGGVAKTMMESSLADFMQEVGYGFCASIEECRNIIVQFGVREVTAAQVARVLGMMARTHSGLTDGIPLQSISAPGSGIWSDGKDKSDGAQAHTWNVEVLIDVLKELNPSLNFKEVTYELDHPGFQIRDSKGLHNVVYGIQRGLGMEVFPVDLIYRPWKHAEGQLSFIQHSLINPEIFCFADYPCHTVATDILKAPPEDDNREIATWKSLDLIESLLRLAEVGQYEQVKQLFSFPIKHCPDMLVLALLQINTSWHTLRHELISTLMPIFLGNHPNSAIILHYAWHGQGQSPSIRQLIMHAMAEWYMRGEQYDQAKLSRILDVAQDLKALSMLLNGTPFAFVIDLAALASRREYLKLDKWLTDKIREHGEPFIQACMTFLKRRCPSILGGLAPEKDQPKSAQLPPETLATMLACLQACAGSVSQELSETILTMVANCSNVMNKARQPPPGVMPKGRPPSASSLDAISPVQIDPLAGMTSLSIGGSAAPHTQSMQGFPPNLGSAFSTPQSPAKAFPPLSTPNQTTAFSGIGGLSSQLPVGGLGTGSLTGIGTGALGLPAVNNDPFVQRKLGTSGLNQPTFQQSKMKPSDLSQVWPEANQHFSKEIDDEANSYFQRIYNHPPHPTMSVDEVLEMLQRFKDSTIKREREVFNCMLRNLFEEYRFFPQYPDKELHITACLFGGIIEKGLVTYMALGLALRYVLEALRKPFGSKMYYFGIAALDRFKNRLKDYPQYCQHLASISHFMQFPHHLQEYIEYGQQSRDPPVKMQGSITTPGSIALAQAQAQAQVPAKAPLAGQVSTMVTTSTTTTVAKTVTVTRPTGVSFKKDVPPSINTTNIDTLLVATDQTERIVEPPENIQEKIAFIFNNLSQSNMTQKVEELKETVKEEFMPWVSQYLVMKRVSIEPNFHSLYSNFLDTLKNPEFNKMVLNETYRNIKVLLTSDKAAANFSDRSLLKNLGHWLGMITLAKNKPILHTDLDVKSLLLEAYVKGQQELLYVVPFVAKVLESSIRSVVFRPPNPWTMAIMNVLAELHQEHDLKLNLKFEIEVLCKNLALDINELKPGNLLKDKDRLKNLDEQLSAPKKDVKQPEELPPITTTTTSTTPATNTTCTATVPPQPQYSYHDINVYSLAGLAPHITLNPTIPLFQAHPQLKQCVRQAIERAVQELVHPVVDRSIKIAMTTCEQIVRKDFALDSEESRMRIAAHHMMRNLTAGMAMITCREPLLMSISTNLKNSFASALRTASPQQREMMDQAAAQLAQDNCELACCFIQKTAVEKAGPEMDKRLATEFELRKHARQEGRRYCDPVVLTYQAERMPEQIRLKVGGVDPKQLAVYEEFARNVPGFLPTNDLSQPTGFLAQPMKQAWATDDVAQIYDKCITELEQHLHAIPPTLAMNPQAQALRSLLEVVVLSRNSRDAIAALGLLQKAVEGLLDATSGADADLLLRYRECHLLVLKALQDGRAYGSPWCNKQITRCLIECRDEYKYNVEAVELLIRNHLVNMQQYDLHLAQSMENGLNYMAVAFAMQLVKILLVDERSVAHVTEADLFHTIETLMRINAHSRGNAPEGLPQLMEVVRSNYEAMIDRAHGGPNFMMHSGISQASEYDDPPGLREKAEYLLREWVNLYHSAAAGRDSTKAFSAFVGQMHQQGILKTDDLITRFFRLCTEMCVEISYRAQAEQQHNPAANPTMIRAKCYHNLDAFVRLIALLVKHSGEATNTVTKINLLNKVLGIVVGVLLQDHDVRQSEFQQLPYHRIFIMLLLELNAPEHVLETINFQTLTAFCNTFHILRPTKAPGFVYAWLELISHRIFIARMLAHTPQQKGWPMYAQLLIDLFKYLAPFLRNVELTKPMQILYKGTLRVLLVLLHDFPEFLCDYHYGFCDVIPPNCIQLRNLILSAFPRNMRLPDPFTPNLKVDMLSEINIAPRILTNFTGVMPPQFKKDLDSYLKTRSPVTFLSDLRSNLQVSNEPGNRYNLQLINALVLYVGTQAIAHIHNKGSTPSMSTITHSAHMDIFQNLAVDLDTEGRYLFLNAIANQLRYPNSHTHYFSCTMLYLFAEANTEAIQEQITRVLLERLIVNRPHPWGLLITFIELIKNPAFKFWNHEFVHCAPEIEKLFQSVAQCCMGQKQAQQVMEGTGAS
The target in test [7] is T4, GATA2 (Homo sapiens, UniProt P23769).
T4 sequence (P23769 1-480): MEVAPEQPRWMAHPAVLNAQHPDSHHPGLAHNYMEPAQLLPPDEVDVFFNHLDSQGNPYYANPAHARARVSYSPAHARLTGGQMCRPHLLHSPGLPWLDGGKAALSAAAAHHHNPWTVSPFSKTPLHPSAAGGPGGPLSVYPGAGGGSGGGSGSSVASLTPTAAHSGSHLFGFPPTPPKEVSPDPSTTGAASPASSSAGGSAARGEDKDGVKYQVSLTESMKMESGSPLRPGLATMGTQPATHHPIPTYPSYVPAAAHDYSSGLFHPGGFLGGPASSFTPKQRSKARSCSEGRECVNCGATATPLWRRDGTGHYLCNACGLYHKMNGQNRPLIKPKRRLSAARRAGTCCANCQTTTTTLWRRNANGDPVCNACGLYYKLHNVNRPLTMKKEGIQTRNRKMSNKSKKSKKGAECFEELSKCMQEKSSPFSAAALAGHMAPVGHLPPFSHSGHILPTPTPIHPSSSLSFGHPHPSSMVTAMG
Put plainly: dose-response competition pulldown with MS readout.

Test [8] has as its target T5, MED15 (Homo sapiens, UniProt Q96RN5).
T5 sequence (Q96RN5 1-788): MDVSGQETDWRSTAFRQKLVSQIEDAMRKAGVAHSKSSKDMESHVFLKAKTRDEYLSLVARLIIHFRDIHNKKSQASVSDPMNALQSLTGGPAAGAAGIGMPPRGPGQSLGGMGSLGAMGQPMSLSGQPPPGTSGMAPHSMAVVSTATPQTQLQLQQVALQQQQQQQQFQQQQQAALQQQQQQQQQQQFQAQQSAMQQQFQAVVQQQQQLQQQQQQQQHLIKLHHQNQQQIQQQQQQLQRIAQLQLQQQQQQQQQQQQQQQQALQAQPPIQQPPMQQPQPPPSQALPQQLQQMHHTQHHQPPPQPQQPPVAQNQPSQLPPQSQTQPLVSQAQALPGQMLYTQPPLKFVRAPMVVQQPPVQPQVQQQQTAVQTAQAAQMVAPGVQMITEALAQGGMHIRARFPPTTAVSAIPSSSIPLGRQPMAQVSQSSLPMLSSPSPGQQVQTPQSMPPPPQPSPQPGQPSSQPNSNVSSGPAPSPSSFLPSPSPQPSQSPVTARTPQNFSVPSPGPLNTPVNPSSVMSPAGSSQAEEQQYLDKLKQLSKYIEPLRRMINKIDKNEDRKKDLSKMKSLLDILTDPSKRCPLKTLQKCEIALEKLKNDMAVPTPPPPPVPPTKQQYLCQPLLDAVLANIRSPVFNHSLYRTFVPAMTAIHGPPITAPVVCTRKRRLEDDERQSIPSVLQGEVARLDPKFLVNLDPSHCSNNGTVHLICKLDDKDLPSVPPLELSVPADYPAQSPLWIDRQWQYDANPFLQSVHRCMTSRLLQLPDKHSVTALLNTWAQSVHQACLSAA
Put plainly: dose-response competition pulldown with MS readout.

For test [9], the target named is T6, UBAP2L (Homo sapiens, UniProt Q14157).
T6 sequence (Q14157 1-1087): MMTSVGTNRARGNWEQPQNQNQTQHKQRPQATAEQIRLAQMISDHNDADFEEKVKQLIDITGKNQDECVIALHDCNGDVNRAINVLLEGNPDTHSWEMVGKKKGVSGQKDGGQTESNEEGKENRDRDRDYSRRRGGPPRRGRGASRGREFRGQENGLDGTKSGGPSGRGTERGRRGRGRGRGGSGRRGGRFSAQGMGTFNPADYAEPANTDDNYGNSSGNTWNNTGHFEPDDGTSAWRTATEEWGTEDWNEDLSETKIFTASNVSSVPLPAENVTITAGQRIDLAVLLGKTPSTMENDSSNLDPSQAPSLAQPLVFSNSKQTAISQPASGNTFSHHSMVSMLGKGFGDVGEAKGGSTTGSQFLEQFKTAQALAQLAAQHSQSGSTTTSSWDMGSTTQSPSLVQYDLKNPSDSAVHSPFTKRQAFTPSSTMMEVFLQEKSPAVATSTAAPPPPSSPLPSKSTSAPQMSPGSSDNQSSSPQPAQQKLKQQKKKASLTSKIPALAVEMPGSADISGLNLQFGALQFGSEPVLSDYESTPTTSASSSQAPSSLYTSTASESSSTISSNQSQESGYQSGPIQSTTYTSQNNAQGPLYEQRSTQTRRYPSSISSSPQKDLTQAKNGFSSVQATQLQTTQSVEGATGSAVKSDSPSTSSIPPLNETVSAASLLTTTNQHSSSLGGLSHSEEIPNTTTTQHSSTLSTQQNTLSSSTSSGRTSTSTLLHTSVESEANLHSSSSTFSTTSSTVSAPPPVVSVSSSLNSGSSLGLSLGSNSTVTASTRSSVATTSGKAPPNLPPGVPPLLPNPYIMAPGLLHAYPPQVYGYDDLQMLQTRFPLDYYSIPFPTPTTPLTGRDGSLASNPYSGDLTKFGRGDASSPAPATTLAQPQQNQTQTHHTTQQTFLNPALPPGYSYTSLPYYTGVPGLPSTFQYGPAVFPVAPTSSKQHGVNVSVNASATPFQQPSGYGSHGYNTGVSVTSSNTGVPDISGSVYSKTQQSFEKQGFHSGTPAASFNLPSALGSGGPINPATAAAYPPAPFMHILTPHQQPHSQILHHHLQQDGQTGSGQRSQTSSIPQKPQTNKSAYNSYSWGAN
In words: dose-response competition pulldown with MS readout.

A value given as a limit tells only on which side of the number the result lay.

For the compound `CN[C@@H]1C[C@H]2O[C@@](C)([C@@H]1OC)n1c3ccccc3c3c4c(c5c6ccccc6n2c5c31)C(=O)NC4` [Staurosporine], in test [1], the “number of kinase targets with affinities below 10 μM” value was determined as 94.

By Kd is commonly meant the constant that tells how readily two partners part at equilibrium. High values mean lower affinity, low ones higher affinity. Turning to `Cc1cc2nc3c(=O)[nH]c(=O)nc-3n(C[C@H](O)[C@H](O)[C@H](O)COP(=O)(O)OP(=O)(O)OC[C@H]3O[C@@H](n4cnc5c(N)ncnc54)[C@H](O)[C@@H]3O)c2cc1C` [FAD, flavin adenine dinucleotide], the equilibrium dissociation constant (Kd) is 78 nM in test [2]; 11 nM in test [3]; 20 nM in test [4]; 186 nM in [5]; 7 nM in [7]; 14 nM in test [8]. Besides, the Kd in [9] came out at 36 nM. Also, the “CNOT1 bound by the matrix but not competed up to” value in test [6] was greater than 100 µM.

For the origin of these results see PMC9680877 (ACS Chemical Biology, 2022).
